Where two headings read alike, the source gives them in different places. Marks after values point to notes of the source that are not given here.
Assays:
[1] = Cell viability, NRU assay; type: cell-based; conditions: human, A431 cells (squamous cell carcinoma), A431, surfactant in solution at 35.6 µg/mL, read-out: cellular viability
Experimental: (§1) The immortal human keratinocyte (HaCaT) and the squamous cell carcinoma (A431) were obtained from Celltec, University of Barcelona. The cells were grown in DMEM medium (4.5 g/L glucose) supplemented with 10% (v/v) FBS, 2 mM L-glutamine, 100 U/mL of penicillin and 100 μg/mL of streptomycin at 37 °C under 5% CO2. Cells were routinely cultured in 75 cm^2 culture flasks and were trypsinized using trypsin-EDTA when reached approximately 80% of confluence.
(§2) HaCaT cells (1 × 10^5 cells/mL) and A431 cells (5 × 10^4 cells/mL) were grown at the defined densities into the central 60 wells of a 96-well microplate. Cells were incubated for 24 h under 5% CO2 at 37 °C. The medium was then removed and the cells were incubated with the surfactants (100 μL), previously diluted 1:1 (v/v), reaching a concentration of […] in DMEM medium supplemented with 5% FBS using two different colorimetric methods for quantification, as follows.
(§3) The accumulation of the neutral red dye in the lysosomes of viable, undamaged cells constitutes the basis of the neutral red uptake (NRU) assay. After the cells were incubated for 24 h with the corresponding systems at 35.6 µg/mL, the medium was removed and the surfactants´ solutions were incubated for 3 h with the NRU dye solution (50 μg/mL) dissolved in the medium without FBS and phenol red (Lonza). Cells were then washed with sterile PBS, followed by the addition of 100 μL of a solution containing 50% ethanol absolute and 1% acetic acid in distilled water to extract the non-adhered dye. The microplates were then stirred for 5 min at 25 °C to promote the dissolution. Finally, the absorbance of the resulting solutions was measured at λ = 550 nm using a Bio-Rad 550 microplate reader (Hercules, CA, USA).

[2] = Apparent pKa by direct titration with NaOH; type: physicochemical; conditions: aqueous solution, concentration above the minimum aggregation concentration; pH at semi-equivalence point
Experimental: In order to determine the ionization state of these gemini surfactants at the pH used to investigate their biological properties, the apparent acid pKa was determined for each of them. The pKap value has been determined by means of a direct titration with NaOH of an aqueous solution of each compound. The surfactant concentrations used were in all cases higher than the minimum aggregation concentration, thus avoiding possible deviations in the pK value due to the monomer–aggregate balance. The pKap values can be estimated from the pH at the semi-equivalence point that is reached when the molar ratio of protonated and non-protonated species is 1:1. In these conditions, we have that the pH = pKa.
The pKa value of each compound has been determined by means of a direct titration with NaOH of an aqueous solution of each compound. The pH was measured using the pH electrode Thermo Electron Corporation ORION 8103SC and the temperature was controlled by a thermostatic bath, Heto CBN 8-30. The pKa values can be estimated from the pH at the semi-equivalence point, which contains a 1:1 molar ratio of protonated and non-protonated species; at this point, pH = pKap.

[3] = design: method as in doi:10.1021/la981295l; conditions: cited from earlier work
bovine hyaluronidase = assay: Hyaluronidase inhibitory activity; type: biochemical; conditions: negative inhibition values
Experimental: The hyaluronidase inhibitory activity was performed according to the method used by Altinyay et al. with some modifications. Briefly, a work solution containing bovine hyaluronidase (7900 units/mL) in 0.1 M acetate buffer (pH 3.6) was prepared. Fifty microliters of the work solution were mixed 1:1 with the surfactants’ solution in 5% DMSO. For the negative control, 50 μL of 5% DMSO was used, while EGCG was used as positive control. After 20 min of incubation at 37 °C, 50 μL of calcium chloride (12.5 mM) was added to the mixture and again incubated for 20 min at 37 °C. At that point, 250 μL sodium hyaluronate (1.2 mg/mL) was added and incubated for 40 min at 37 °C. After incubation, the mixture was treated with 50 μL of 0.4 M NaOH and 100 μL of 0.2 M sodium borate and then incubated for 3 min in a boiling water bath. After cooling to room temperature, 1.4 mL of p-dimethylaminobenzaldehyde solution was added to the reaction mixture, being further incubated at 37 °C for 20 min. The resulting colored solution was measured at λ = 585 nm (PerkinElmer-Lambda 35, Brazil). The hyaluronidase inhibitory activity of each sample was calculated according to the following formula:(3) Hyaluronidase inhibitory activity %=A1−A2/A1×100 where A1 and A2 represent the absorbance in the absence and presence of the testing sample, respectively.

[4] = design: method as in doi:10.1021/la981295l; conditions: cited from earlier work; remark: listed apart in the source
[5] = Cell viability, NRU assay; type: cell-based, human; conditions: human, HaCaT cells (immortal human keratinocytes); NRU, HaCaT, surfactant in solution at 35.6 µg/mL, 24 h; read-out: cellular viability
Experimental: as §1, §2, §3

[6] = design: method as in doi:10.1021/la981295l; conditions: cited from earlier work; remark: listed apart in the source
[7] = target: porcine pancreatic elastase (Sus scrofa, UniProt P00772); assay: Elastase inhibitory assay; type: biochemical; conditions: 40 µL of 1000 µg/mL stock; EGCG 250 μM
Experimental: The elastase inhibition was tested according to the method described by […] et al.. First, a stock solution of each surfactant at 1000 μg/mL was prepared in sterile ultrapure water. A stock solution of porcine pancreatic elastase at 3.33 mg/mL in sterile ultrapure water was also prepared. The substrate […] (Ala) 3-p-nitroanilide was dissolved in 0.2 mM Tris-HCl buffer solution (pH 8.0). The samples (40 μL) were then diluted and incubated together with the enzyme for 15 min prior to the substrate addition. Negative control was sterile ultrapure water, while EGCG (250 μM or 0.114 mg/mL) was used as the positive control. The absorbance at λ = 410 nm was measured immediately after the substrate addition and continuously during the next 2 h using an Elx800 Microplate Reader (Biotek®). […] The anti-elastase activity (in %), determined in triplicate, was calculated according to the following equation:(2) Elastase inhibitory activity %=A1-A2/A1×100 where A1 and A2 represent the absorbance in the absence and presence of the testing samples, respectively.

porcine pancreatic elastase, sequence (P00772 27-266): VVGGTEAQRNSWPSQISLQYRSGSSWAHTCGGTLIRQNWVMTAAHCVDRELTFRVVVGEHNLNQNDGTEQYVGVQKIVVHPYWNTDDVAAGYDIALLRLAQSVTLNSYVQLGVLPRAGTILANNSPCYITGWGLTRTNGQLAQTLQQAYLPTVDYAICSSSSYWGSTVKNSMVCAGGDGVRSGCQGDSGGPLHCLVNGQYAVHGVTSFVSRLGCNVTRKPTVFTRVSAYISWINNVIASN

pKap [2]: 9.4
increase of hyaluronidase enzymatic activity (bovine hyaluronidase): 29.9%
anti-elastase activity (inhibition) [7]: 15.9%
SMILES: CCCCCCCCCCCC(=O)NC(CCCNC(=N)N)C(=O)NCCCCCCCCCNC(=O)C(CCCNC(=N)N)NC(=O)CCCCCCCCCCC (stereo not drawn) [C9(LA)2, Bis (N^α-lauroyl arginine 1,3-nonane) diamide]
viability at 24 h, 35.6 µg/mL [1]: 60.7%
CMC (mM) Conductivity [3]: 0.3 * mM
CMC (mM) Fluorescence [4]: 0.3 * mM
viability at 24 h, 35.6 µg/mL [5]: 60.7%
CMC (mM) Surface Tension [6]: 0.003 * mM
γcmc ([6]; surface tension at the cmc): 34 * mN/m

From paper PMC10536132, “Arginine Gemini-Based Surfactants for Antimicrobial and Antibiofilm Applications: Molecular Interactions, Skin-Related Anti-Enzymatic Activity and Cytotoxicity” (Molecules, 2023)
